Data as given in patent publication US20200397001A1, “CONTROL OF PESTS OF SOYBEAN PLANTS WITH MESOIONIC COMPOUNDS” (BASF SE, priority 2018, published 2020).

Tests used:
Format in all cases: in vivo
Euschistus heros = assay: Brown stink bug test on sprayed soybean seedlings of Intacta and BMX-Potencia; conditions: 100 ppm, 6 days after application; for efficacy on soybean with Bacillus thuringiensis toxin trait (INTACTA) versus soybean without the trait (BMX-POTENCIA): sprayed seedlings; for mortality (corrected according to Abbott): sprayed soybean seedlings of Intacta and BMX-Potencia, adults
Method: Brown Stink Bug (Euschistus heros)
The active compound is dissolved at the desired concentration in a mixture of 1:1 (vol:vol) distilled water:acetone. Soybean seedlings of Intacta and BMX-Potencia with one pair of true leaves were sprayed 10 with 2 ml solution using an airbrush. After dry, the plants in small pots were placed inside a transparent plastic cage and infested with 10 adults adult stage individuals. Treated cups were kept at about 25° C. Percent mortality was recorded after 6 days after application. […] Entomal., 18 (1925) 265-267.

Halyomorpha halys = assay: Brown marmorated stink bug spray test on soybean seeds in cups; conditions: 300 ppm, adults on soybean seeds, 5 days after treatment
Method: Halyomorpha halys (Brown Marmorated Stink Bug)
For evaluating control of Halyomorpha halys the active compound is dissolved at the desired concentration in a mixture of 1:1 (vol:vol) distilled water:acetone with 0.005% (v/v) of Tween 20 added as surfactant. Soybean seeds are placed in a small petri dish inside a plastic cup 10 adults (5 females and 5 males) are introduced into each cup. Using an airbrush sprayer, 1 mL solution was sprayed directly inside the cups with bean pods. After drying, a water source (wet cotton in a small petri dish) is placed in each cup, and the cups closed with ventilated cover. All cups held under constant temperature of 20° C., 16L:8D photoperiod. Live insects are counted at 5 days after treatment.

Nezara viridula = assay: Green soldier stink bug soil drench test on lima bean plants; conditions: 250 g ai/ha, 2nd instar nymphs infested 3 days after treatment, read 4 days after infestation
Method: Green Soldier Stink Bug (Nezara viridula)
Lima Bean (Phaseolus lunatus, ‘Henderson Bush,’ Lot #—VR06650) plants were transplanted at the two true-leaf stage into 25.8 cm2 pots filled with sifted (No. 10 sieve). Pots were held in the greenhouse and watered daily until treatment. Three days after transplant, the compounds were dissolved in acetone and then diluted with water for a final concentration of 50% acetone. Treatments were applied as a drench in 1 ml solution per plant. Plants were held in an environmental chamber (25±2° C., 24 L) and watered as needed for the duration of the test.
Three days after treatment, plants were infested with five 2nd instar nymphs. Plants were 15 covered with organza fabric bags to prevent escape. Four days after infestation, the number of live nymphs on each plant was recorded, and means were calculated for each treatment. The percent control was calculated as the percent mortality relative to the solvent blank.

Row | Structure (SMILES) | efficacy on soybean with Bacillus thuringiensis toxin trait (INTACTA) versus soybean without the trait (BMX-POTENCIA) (Euschistus heros) | mortality (corrected according to Abbott) (Euschistus heros) [%] | mortality in comparison with untreated controls (Halyomorpha halys) | mortality in comparison with untreated controls (percent control relative to the solvent blank) (Nezara viridula)
1 | N#CCCn1c(=O)c(-c2ccc(F)cc2)c([O-])[n+]2ccccc12 [Compound C-9] | higher efficacy | 70 |  | 
2 | Cc1cccc(-c2c([O-])[n+]3ccccc3n(CCC#N)c2=O)c1 [Compound C-6] |  |  | at least 75% | 
3 | N#CCCn1c(=O)c(-c2cc(C3CC3)cc(C(F)(F)F)c2)c([O-])[n+]2ccccc12 [Compound C-8] | higher efficacy | 68 |  | at least 75%
